The record followed here is patent publication US10016469B2, “Composition comprising antifungal agents for treating vulvovaginitis and vaginosis” (Two Lines Co., Ltd., priority 2015, dated 2018).

Test in all cases: Antibiotic disk diffusion assay
The test system of one assay is L. crispatus YH2. In kind it is cell-based, Lactobacillus crispatus. The following applies: L. crispatus YH2, MRS agar. The protocol: (§1) To screen antibiotics to which Gardnerella vaginalis (G. vaginalis) is sensitive, and are resistant to probiotics, antibiotics were tested using a disk diffusion assay. Columbia agar containing a 5% human red blood cell solution was used as a media for Gardnerella vaginalis (G. vaginalis, ATCC 14018) and a MRS agar was used as a media for the strains of the present invention ([…]1 and L. crispatus YH2). As the antibiotic disk, a product manufactured by OXIOD was used.

Assay [1] concerns G. vaginalis, standard microorganism (ATCC 14018). In kind it is cell-based, Gardnerella vaginalis. As to conditions: G. vaginalis ATCC 14018, Columbia agar with 5% human red blood cell solution. The method, then: To screen antibiotics to which Gardnerella vaginalis (G. vaginalis) is sensitive, and are resistant to probiotics, antibiotics were tested using a disk diffusion assay.
Columbia agar containing a 5% human red blood cell solution was used as a media for Gardnerella vaginalis (G. vaginalis, ATCC 14018) and a MRS agar was used as a media for the strains of the present invention (S. denitnficans YH1 and L. crispatus YH2). As the antibiotic disk, a product manufactured by OXIOD was used.
As described above, augmentin, metronidazole, and clindamycin were applied to a wild-type Gardnerella vaginalis (G. vaginalis) strain obtained from 33 patients suffering from bacterial vaginosis and a standard microorganism (ATCC 14018) and subjected to a test using a disk diffusion assay.

In another assay the test system is S. denitrificans YH1. Type of assay: cell-based. As to conditions: S. denitrificans YH1, MRS agar. The protocol: as §1

For the compound `CN[C@H](CC(C)C)C(=O)N[C@H]1C(=O)N[C@@H](CC(N)=O)C(=O)N[C@H]2C(=O)N[C@H]3C(=O)N[C@H](C(=O)N[C@H](C(=O)O)c4cc(O)cc(O)c4-c4cc3ccc4O)[C@H](O)c3ccc(c(Cl)c3)Oc3cc2cc(c3O[C@@H]2O[C@H](CO)[C@@H](O)[C@H](O)[C@H]2O[C@H]2C[C@](C)(N)[C@H](O)[C@H](C)O2)Oc2ccc(cc2Cl)[C@H]1O` [Vancomycin], the figures for the “diameter of inhibition zone” value (in the assay on L. crispatus YH2; in assay [1]; in the assay with S. denitrificans YH1) were 35 mm, 40 mm and 35 mm, respectively.

Gentamicin: the “diameter of inhibition zone” value (with L. crispatus YH2; in assay [1]; with S. denitrificans YH1) was 0 mm throughout.

On to Trimethoprim sulfamethoxazole, for which the “diameter of inhibition zone” value (in the assay on L. crispatus YH2; in assay [1]; in the assay with S. denitrificans YH1) was 0 mm in each case.
